The results in this text go back to a melting point compilation (Tetko et al.; mined from patent text by program, amines drawn as free bases though some values may be those of a salt).

Residues, ends and D or L forms follow the SMILES beside them. *: point of attachment. Boc = CC(C)(C)OC(=O)*; OBn = c1ccc(CO*)cc1

On to `Cc1ccccc1C(=O)CN1C(=O)C(NC(=O)Nc2cccc(C(=O)NO)c2)CN(C(=O)C(C)(C)C)c2ccccc21` (stereo not drawn), for which the melting point lay in the range of 192 to 196 °C. The molecule `CCOC(=O)c1c(Nc2c(C)cc(Br)cc2C)n[nH]c1C` yielded a melting point of 168 to 196 °C. Then `CS(=O)(=O)Nn1c(=O)[nH]c2cc([N+](=O)[O-])c(-n3cccc3)cc2c1=O`, with 243 to 250 °C; and `COc1ccc(C(NC(=O)c2ccc(F)cc2)c2cccc(Nc3c(OC)c(=O)c3=O)c2)cc1` (stereo not drawn), with 115 to 116 °C; and `CCOC(=O)c1cn(CCO)c2cc(-n3cccc3)c(F)cc2c1=O`, with 237 to 239 °C. With `O=C(O)CCCN(C(=O)c1cccc(C(F)(F)F)c1)c1ccccc1-c1ccccc1` the figure was 156 to 157 °C; with `C1CCN(ON2CCCC2)C1`, 99 °C; with `CCOC(=O)c1[nH]c2cc3c(sc4ccccc43)c(C)c2c1C`, 191 to 193 °C. With `CC(C)(C)OC(=O)NCCNC(=O)c1ncsc1-c1ccccc1` the figure was 139 to 140 °C; with `Cc1nc(-c2cccc(-n3cnc4cc(-c5ccoc5)ccc43)c2)cs1`, 136 to 138 °C; with `Nc1nc(SC(c2ccccc2)c2ccccc2)c2[nH]cnc2n1`, 226 to 227 °C.

Turning to `O=C(c1cc(=O)c2cc(O)ccc2[nH]1)N1CCC(Cc2ccccc2)CC1`, the melting point was found to be 127 °C. Molecule `CC(=O)OCCn1cc(-c2ccccc2)[nH]c1=O` had a melting point of 86 to 88 °C. Then `NCc1cc(CN)cc(CN)c1`, with 49 to 51 °C; and `COc1ccc(CCNC(=O)Cc2ccc(-c3ccccc3)cc2)cc1OC`, with 103 to 105 °C; and `O=c1ccc(-c2ccc(O)cc2)cn1Cc1ccc(Cl)cc1F`, with 207 °C. Molecule `COc1ccccc1CN[C@H]1CCCN(CCCc2ccccc2)[C@H]1c1ccccc1` (relative stereo) showed a melting point of 120 to 125 °C. In turn, `CCOC(=O)CC(=O)c1ccncn1` registered a melting point of 52.3 °C. Then `CCNS(=O)(=O)CC(=O)C1=CNC(C)=C(C(=O)OC)C1c1cccc([N+](=O)[O-])c1` (stereo not drawn), with 185 to 187 °C; and `CCOc1ccc(-c2cncn2-c2ccc(S(=O)(=O)NC(C)(C)C)cc2)cc1`, with 215 °C; and `OCC1CCN(CC(O)c2ccc(F)cc2)CC1` (stereo not drawn), with 113 °C.

`COCCOc1cccc2c1C(=O)c1ccccc1C2=O` came in with a melting point of 146 to 147 °C. With `CC1=C(C(=O)O)N2C(=O)C(NC(=O)Cc3ccc(CCl)cc3)C2SC1` (stereo not drawn) the figure was 145 to 146 °C; with `CCOc1ccc([N+](=O)[O-])cn1`, 85 to 88 °C; with `CC1(CNC(=O)C(F)(F)F)CN(C(c2ccccc2)c2ccccc2)C1`, 127 to 128 °C. Then `CN(CCc1ccccc1)S(=O)(=O)CC(=O)NO`, with 149 to 151 °C; and `COc1ccc(CC(=O)NC(NC(=NC#N)Nc2cccnc2OC)C(C)(Cl)Cl)cc1OC` (stereo not drawn), with 188 to 190 °C.

With `CCc1nn(CCNC(=O)c2ccccc2)c(CC)c1Cc1cc(Cl)cc(Cl)c1`, the melting point lay within 115 to 117 °C. `COC(=O)c1nc(O)ccc1OCc1ccccc1` came in with a melting point of 91 to 92 °C. With `O=C(O)c1cncc2cccc([N+](=O)[O-])c12` the figure was 285 °C; with `O=C1Cc2cccc(S(=O)(=O)c3ccccc3)c2N1`, 217 to 220 °C. With `Cc1ccc(C=C(C#N)c2ccccc2)cc1` the figure was 61 °C; with `CC1(C)NC(=O)N(c2ccc(Cl)c(C(F)(F)F)c2)C1=O`, 152 to 153 °C; with `CCOC(=O)NCc1cc(-c2ccc(Cl)cc2)no1`, 137 °C. With `O=C(Cc1noc2ccccc12)N[C@H]1CC[C@H](CCN2CCC(c3cccc4c3CCO4)CC2)CC1` the figure was 214 °C; with `CC(C)(C)OC(=O)NCC(=O)NCC(=O)OCc1ccccc1` (Boc-Gly-Gly-OBn), 83 °C; with `CC(=O)OCC1OC(n2c3ncccc3c3c4c(c5c6ccccc6[nH]c5c32)C(=O)N(C)C4=O)C(OC(C)=O)C(OC(C)=O)C1OC(C)=O` (stereo not drawn), 302 to 304 °C.

Take `CCOC(=O)Nc1ccccc1SCc1ncon1`: the melting point worked out at 55 °C.

For `CCN1CCCNC1=C[N+](=O)[O-]`, the melting point lay within 126 to 127 °C.

Molecule `CCOc1cc(N)c(Cl)cc1C(=O)NCC1CN(CC2CCN(C#N)CC2)CCO1` (stereo not drawn) displayed a melting point of 197 °C. With `C[C@@H]1Cc2cc(N3C[C@H](C(N)=O)OC3=O)ccc2N1C(=O)CO` the figure was 198 to 200 °C; with `CCC(CC)N(O)C(=O)Nc1ccccc1Oc1ccccc1`, 141 to 142 °C; with `COCOc1ccc(CCC(=O)c2c(OC)cc(OC)c(CCC(C)C)c2O)cc1OC`, 69 to 70 °C. With `Nc1cccc2nc3c(nc12)N1CCCCC1CO3` (stereo not drawn) the figure was 207 to 209 °C; with `CC(C)OC(=O)Cn1c(=O)n(C)c(=O)n(-c2cc(N=c3sc(=S)n4n3CCCC4)c(F)cc2Cl)c1=O`, 115 to 122 °C; with `CCOC(=O)C1=C(N)NC(c2ccccc2)=C(C(=O)O)C1c1ccccc1` (stereo not drawn), 183 °C.

`CCC1(C)Cc2ccc(C(C)C(=O)O)cc2C1` (stereo not drawn) had a melting point of 165 to 167 °C.

For the molecule `C[C@H]1N=C(c2ccccc2F)c2cc([N+](=O)[O-])ccc2NC1=O`, the melting point came to 120 °C. With `O=C(O)CCCc1ccc(-c2ccccc2F)cc1`, the melting point fell in the range of 65 to 66 °C. Turning to `COC(=O)N1CCc2ccc3cc[nH]c3c2CC1`, the melting point lay within 169 to 171 °C. With `CCCCCCCCCCCCCCCCCCOc1ccc(NC(=O)OC(C)(C)C)cc1` the figure was 66 to 67 °C. With `C[C@@H]1NCC[C@@H]1C(C)(C)O` the figure was 120 to 122 °C; with `CCOC(=O)NC(=O)C1c2ccccc2Oc2c1cccc2C(F)(F)F` (stereo not drawn), 196 to 198 °C. Then `COc1cccc2c1[nH]c(=O)n1c(=O)[nH]nc21`, with 308 to 310 °C.

In the case of `O=C1CCc2cc(-c3cccc(Cl)c3)ccc21`, the melting point came out at 113 °C. Then `O=C(NC(Cc1ccccc1)C(=O)O)c1cc(-c2ccc(OCc3ccccc3)cc2)[nH]n1` (stereo not drawn), with 196 to 200 °C; and `CCCCCCCCCCCCCCCCCCOc1ccc(O)c(C(=O)N(N)C(=O)OCCCCCCCC)c1`, with 85 °C. Then `COc1ccc(S(=O)(=O)N(Cc2ccccc2)[C@H](CC(C)C)C(=O)NO)cc1`, with 48 to 52 °C; and `COCN1C(C)=C(C(=O)O)C(c2ccccc2)C(C(=O)OCOC(=O)C(C)(C)C)=C1C` (single isomer, unassigned; (+)), with 121 to 122 °C; and `O=C(O)CCCCCCCn1c(-c2ccccc2)nc(-c2ccccc2Cl)c1-c1ccccc1Cl`, with 198 °C. In the case of `CCCCCCCCNC(=O)[C@@H]1C[C@H]1c1ccc([N+](=O)[O-])cc1` (relative stereo), the melting point lay in the range of 126 to 129 °C. With `CC1(c2ccccc2)C(=O)Nc2ccccc2C1=O` (stereo not drawn) the figure was 194 to 196 °C; with `COc1ccc(C)cc1NC(=O)Nc1ccc(N2CCN(C(=O)Nc3ccc(OCCO)cc3C(F)(F)F)CC2)c(C)c1`, 225 to 228 °C. Then `CC(C)(C)OC(=O)C(N)CCNC(=O)c1ccc2c(c1)C(=O)c1ccccc1C2=O` (stereo not drawn), with 173 to 175 °C; and `CCCCCCCCCCCCCCCC(=O)C(O)C(=O)C(O)C(=O)CCCCCCCCCCCCCCC` (stereo not drawn), with 80 to 81 °C. Then `O=C1Cc2ccc(-c3ccccc3)cc2N1`, with 173 to 175 °C; and `Cc1nc(-n2cc(Cl)ccc2=O)sc1C(=O)NCc1ccccc1`, with 173 to 174 °C.

On to `CC(C)(C)OC(=O)NCCc1cccc(C(=O)Nc2ccc(Nc3cc(-c4cccc5c4oc4ccccc45)ncn3)cc2)c1`, for which the melting point was 235 to 238 °C. Then `CCC1CC2CC(=O)OC3OC4(C)CCC(C1C)C23OO4` (single isomer, unassigned; (+)), with 155 to 157 °C; and `CNC(=O)CCCCSc1nccc(NC(N)=NCC(F)(F)F)n1`, with 148 to 150 °C; and `N#Cc1ccc(/C=C/C2=CCN(Cc3c[nH]c4ncccc34)CC2)cc1`, with 213 to 215 °C.

Take `OC1CCCC(n2c(NC3CC3)nc3cc(Cl)c(Cl)cc32)C1O` (stereo not drawn): the melting point was more than 25 °C. As for `CCOC(=O)N1CCn2c(nc(-c3ccncn3)cc2=O)C(CC)C1` (racemic), the melting point was 160 to 162 °C. With `Cc1csc2c1CCN(C)CC2c1ccccc1` (stereo not drawn) the figure was 40 °C; with `O=[N+]([O-])c1cc(O)c(Cl)cc1F`, 106 to 107 °C; with `CC(C)(C)CCC/C(=C\c1ccc(C(=O)O)cc1)Cn1ccnc1`, 190 to 192 °C.

For the molecule `CCCCCCCCCCCCCCCCCCCCCCOC(=O)P(=O)(OC)OC`, the melting point was in the range of 60 to 61 °C. Turning to `NS(=O)(=O)c1ccc(-c2ccccc2-c2ccc(F)c(Cl)c2)cc1`, the melting point was in the range of 192 to 193 °C. With `O=C(O)COc1cccc2c1CCc1sc(SCC(c3ccccc3)c3ccccc3)nc1-2` the figure was 223 to 225 °C; with `O=C(O)CCCCCOc1ccccc1C(=O)c1ccccc1O`, 89 to 91 °C; with `CCOC(=O)c1cn(-c2nc(N)c(F)cc2C)c2c(Cl)c(F)c(F)cc2c1=O`, 198 to 202 °C. Then `CC(C)(C)OC(=O)NC1CCN(CC23CC(c4ccccc42)c2ccc(Cl)cc23)CC1` (stereo not drawn), with 76.5 to 80 °C; and `CC(=O)c1ccccc1NC(C(N)=O)c1c(Cl)cccc1Cl` (stereo not drawn), with 169 °C.

Take `COc1ccc(CCc2oc3ccc(C#N)cc3c2C(=O)O)cc1`: the melting point lay within 205 to 208 °C.

As to `CCCSc1sc(C(N)=O)c2c1-c1[nH]ncc1CC2`, the melting point was 163 to 164 °C. With `Cc1cc(CN2CCC(N(C)S(=O)(=O)c3ccc(Nc4nccc(Nc5ccc(F)c(F)c5)n4)cc3)CC2)no1` the figure was 204 to 206 °C. With `COc1cccc2c1C(=O)N1CCC[C@H]1c1c(C(=O)OC(C)(C)C)ncn1-2` the figure was 200 to 201 °C. Then `Clc1c(Cl)c(Cl)c2[nH]c(NC3=NCCN3)nc2c1Cl`, with 310 °C.
